In patent publication US12268707B2, “Treatment for coronavirus infection and associated cytokine toxicity” (priority 2020, dated 2025):
Several values for one entry are separate records, joined by “and”; a condition that tells them apart may be missing. Equal values may be shown once.

Legend:
[1] = test system: SARS-CoV-2; format: cell-based
[2] = fraction of heparin's anticoagulant properties; cited from earlier work
[3] = high doses for extended periods; cited from earlier work
[4] = administered orally, intravenously or subcutaneously; cited from earlier work

pentosan polysulfate [PPS]
reduction in virus infectivity (TCID50/mL) [1]: almost four orders of magnitude reduction
virus replication in Calu3 cells [1]: inhibited much more strongly
anticoagulant properties relative to heparin [2]: about 1/15 and 1/15
side effects [3]: only limited side effects
bioavailability [4]: bioavailable
